Assay results as given in paper PMC12040169 (PLOS Biology, 2025).

assay: in vitro; conditions: human, hela cells, % viability

Structure (SMILES)	viability at 28.5 h, 10 µM
O=C1c2ccccc2C(=O)N1CCc1nc2ccccc2c(=O)n1-c1nc2ccccc2s1 [CBK266358]	122%
Cc1ccc(S(=O)(=O)NC(C)(C)CSc2ccccn2)cc1 [CBK266360]	86.1%
COc1ccc(S(=O)(=O)N2Cc3ccccc3CC2C(=O)Nc2sc3c(c2C#N)CCCC3)cc1 (centres unmarked) [CBK266363]	116%
Cc1cccc(-n2c(CCc3ccccc3)nnc2SCC(=O)c2ccccc2)c1 [CBK266369]	94%
CC1CCc2c(sc(NC(=S)NC(=O)c3ccc4c(c3)OCCO4)c2C(N)=O)C1 (centres unmarked) [CBK266370]	101%
COc1ccccc1NC(=O)CCSc1nc(C)cc(C)n1 [CBK266371]	103%
Nc1nnc(SC2c3cccc4cccc(c34)C2NS(=O)(=O)c2ccc(Cl)cc2)s1 (centres unmarked) [CBK266373]	99.7%
N#Cc1c(NC(=O)CSc2nnc(-c3ccncc3)o2)sc2c1CCCC2 [CBK266374]	99.2%
Cc1ccc(OCC(O)Cn2c(=N)n(CCN3CCCCC3)c3ccccc32)cc1 (centres unmarked) [CBK266375C]	98.9%
CS(=O)(=O)CCC(C(=O)O)N1C(=O)c2ccc(Oc3ccc(Cl)cc3)cc2C1=O (centres unmarked) [CBK266377]	92%
O=C(Nc1sc2c(c1C(=O)NCCc1ccccc1)CCC2)c1sc2ccccc2c1Cl [CBK266379]	105%
Cn1c(/C(C#N)=C\c2ccc(-c3ccc(S(N)(=O)=O)cc3)o2)nc2ccccc21 [CBK266380]	95%
O=C(CC1Nc2ccccc2NC1=O)Nc1ccc(F)c(Cl)c1 (centres unmarked) [CBK266381]	97%
Cc1cc(C)cc(NC(=O)CC2Sc3ccccc3NC2=O)c1 (centres unmarked) [CBK266384]	94%
COc1ccc(Cc2nc3ccccc3n2CCc2ccccc2)cc1 [CBK266385]	95.2%
O=C(CSc1nnc(-c2ccco2)o1)c1ccc2c(c1)OCCO2 [CBK266387]	105%
C=CCn1c(NCc2ccccc2NS(=O)(=O)c2ccc(C)cc2)nc2ccccc21 [CBK266393]	111%
CCOC(=O)c1ccc(COc2cccc(-c3cnc4ccccc4n3)c2)cc1 [CBK266395]	94.2%
Nc1ccc(Oc2nc(Oc3ccc(N)cc3)c(F)c(Oc3ccc(N)cc3)c2F)cc1 [CBK266397C]	110%
O=C(Nc1ccccc1N1CCN(C(=O)c2ccc(Cl)cc2)CC1)c1ccc(-c2cccc([N+](=O)[O-])c2)o1 [CBK266398]	93.3%
CC1CCCN(c2ccc(NC(=O)c3cccs3)cc2[N+](=O)[O-])C1 (centres unmarked) [CBK266402]	102%

Structure (SMILES)	viability at 28.5 h, 10 µM
Cc1ccc(S(=O)(=O)N(CC(=O)Nc2cccnc2)c2cccc([N+](=O)[O-])c2)cc1 [CBK266404]	86%
O=C(CCC1CCCC1)Nc1nnc[nH]1 [CBK266406]	100%
COc1ccc(-c2nc3cc(C(C)C)ccc3o2)cc1NC(=O)Cc1ccc(Cl)cc1 [CBK266409]	96.9%
Cn1cc(C(c2ccccc2OCC(=O)O)c2cn(C)c3ccccc23)c2ccccc21 [CBK266410]	112%
C=CCSc1nnc(-c2ccccc2NC(=O)CC)c(O)n1 [CBK266411]	115%
Cc1nc(-c2ccccc2)sc1C(=O)C1=C(O)C(=O)N(CCN(C)C)C1c1ccccc1 (centres unmarked) [CBK266415]	100%
O=C(O)Cn1c2ccc(Br)cc2c2nc3ccccc3nc21 [CBK266416]	97.1%
NS(=O)(=O)c1ccc(NC2=NC(=O)C(CC(=O)Nc3ccccc3)S2)cc1 (centres unmarked) [CBK266417]	98.2%
COc1cccc(C(=O)C2=C(O)C(=O)N(CCCn3ccnc3)C2c2cccc(F)c2)c1 (centres unmarked) [CBK266419]	107%
COc1cccc2cc(C(=O)C3=C(O)C(=O)N(CCCN4CCOCC4)C3c3ccc(C)cc3)oc12 (centres unmarked) [CBK266420]	106%
COc1cc(CNn2cnnc2S)ccc1OCC(=O)NC(C)(C)C [CBK266429]	92.5%
O=C(COc1ccc(S(=O)(=O)NC2CCCC2)cc1)Nc1ccc2c(c1)OCCO2 [CBK266431]	101%
O=C(O)c1ccc(NC(=O)c2cn(-c3ccccc3)nc2-c2cc3ccccc3oc2=O)cc1 [CBK266432]	99.8%
COc1ccc2c(c1)C(C(C(=O)O)C(=O)O)c1ccccc1O2 (centres unmarked) [CBK266435]	93.8%
Cc1nnc(SCc2nc(N)nc(Nc3ccccc3)n2)s1 [CBK266436]	109%
COCCn1c(C)cc(C(=O)CSc2cc(C)c3ccccc3n2)c1C [CBK266437]	70.3%
Cc1cc(Cl)c(S(=O)(=O)N2CCN(c3ccc(F)cc3)CC2)cc1OCC(N)=O [CBK266439]	98.3%
CCOC(=O)c1c(NC(=O)CSc2ncnc3sc(C)c(C)c23)sc(C)c1C [CBK266440]	118%
O=C(C1=C(O)C(=O)N(CCCN2CCOCC2)C1c1ccccn1)c1ccc(Cl)cc1 (centres unmarked) [CBK266445]	112%
CC1(C)CC(=O)C2=C(C1)Nc1ncnn1C2c1ccccc1F (centres unmarked) [CBK266446]	88%
N#Cc1nc(COc2cccc(Cl)c2)oc1NCc1ccncc1 [CBK266447]	95.7%

Structure (SMILES)	viability at 28.5 h, 10 µM
Cc1cc(C)nc(Nc2n[nH]c(-c3cccc4ccccc34)n2)n1 [CBK266451]	99.3%
Cc1cc(C)nc(NC2=NC3CCCCC3N2C(=O)Nc2ccc(Cl)c(Cl)c2)n1 (centres unmarked) [CBK266458]	97.5%
CS(=O)(=O)N(CC(=O)NCc1ccccn1)c1cc(Cl)cc(Cl)c1 [CBK266459]	106%
O=C(CSc1nnc2ccc3ccccc3n12)Nc1nsc(-c2ccc(Cl)cc2)n1 [CBK266460]	99.5%
O=C(O)CSC1c2ccccc2Oc2ccc(F)cc21 (centres unmarked) [CBK266462]	98%
Cc1cc(C)c(C)c(CSCc2nc3ccccc3[nH]2)c1C [CBK266466]	98.8%
NS(=O)(=O)c1ccc(NC(=O)c2cc3c(n(-c4ccccc4)c2=O)CCCC3=O)cc1 [CBK266467]	115%
N#Cc1nc(COc2ccc(Br)cc2)oc1NC1CC1 [CBK266470]	94.6%
CCN1CCN(c2ccc(NC(=O)c3cccc(OCc4ccccc4)c3)cc2)CC1 [CBK266471]	95%
Cc1oc(C)c(C(=O)Nc2cccc(C(=O)O)c2)c1C(=O)Nc1cccc(C(=O)O)c1 [CBK266472]	108%
CC(Nc1nc(N2CCNCC2)nc2ccccc12)c1ccccc1 (centres unmarked) [CBK266475]	102%
Cc1nc(-c2ccccc2)sc1C(=O)C1=C(O)C(=O)N(CCCN2CCOCC2)C1c1ccco1 (centres unmarked) [CBK266476]	111%
COc1ccc(OC)c(NC(=O)CC2NCCNC2=O)c1 (centres unmarked) [CBK266477]	95.9%
COc1ccc(N2C(=O)CC(Nc3ccc(Cc4nc5ccccc5[nH]4)cc3)C2=O)cc1 (centres unmarked) [CBK266480]	96.9%
Cc1cc(Cl)ccc1OC(C)C(=O)Nc1cc(C(=O)O)cc(C(=O)O)c1 (centres unmarked) [CBK266483]	103%
CCCc1cc(=O)[nH]c(N/C(=N/C(=O)c2ccccc2)Nc2ccc3c(c2)OCCO3)n1 [CBK266485]	99.5%
O=C(CSc1nc2[nH]ncc2c(=O)n1-c1ccccc1)Nc1nsc(-c2ccccc2)n1 [CBK266486]	101%
COc1cc(S(=O)(=O)N2CCCN(S(=O)(=O)c3cc(OC)c(Cl)cc3OC)CC2)c(OC)cc1Cl [CBK266489]	99.4%
Cc1cc(C)n(C(=O)c2ccc([N+](=O)[O-])cc2N)n1 [CBK266491]	102%
Cc1sc2nc(SCc3nc(-c4ccccc4)no3)n(-c3ccccc3)c(=O)c2c1C [CBK266492]	110%
Cc1c(C(=O)C2=C(O)C(=O)N(CCN3CCOCC3)C2c2ccccn2)cnn1-c1ccccc1 (centres unmarked) [CBK266493]	112%

Structure (SMILES)	viability at 28.5 h, 10 µM
Cc1[nH]c2ccccc2c1C(=O)CSc1nc2ccccc2[nH]1 [CBK266494]	63.6%
Cc1cc(Cl)c(S(=O)(=O)NCc2cccs2)cc1OCC(N)=O [CBK266496]	101%
COc1ccc(CCNC(=O)Nc2ccccc2[N+](=O)[O-])cc1 [CBK266497]	96.8%
O=C(CSC1c2ccccc2Oc2ccccc21)Nc1ccccc1C(=O)O [CBK266499]	98.4%
O=C(CSc1ccccc1)Nc1cccc(Oc2ccc3c(c2)C(=O)NC3=O)c1 [CBK266500]	113%
Cc1ccc(CNS(=O)(=O)c2ccc3ccccc3c2)cc1 [CBK266501]	102%
CC(Sc1nc2ccccc2[nH]1)c1nc2ccccc2[nH]1 (centres unmarked) [CBK266502]	89.7%
CCN1CCN(c2ccc(NC(=O)c3ccc([N+](=O)[O-])c(C)c3)cc2)CC1 [CBK266503]	115%
N=C(Nc1nc(=O)cc(CSc2ccc(Cl)cc2)[nH]1)Nc1cccc2ccccc12 [CBK266504]	98.9%
O=C(C1=C(O)C(=O)N(CCN2CCOCC2)C1c1ccccn1)c1cccs1 (centres unmarked) [CBK266508]	99.3%
Cc1cc(C)nc(N(C#N)CC(=O)N2c3ccccc3CCc3ccccc32)n1 [CBK266509]	112%
Cc1nc(-c2ccccc2)sc1C(=O)C1=C(O)C(=O)N(CCN2CCOCC2)C1c1ccccc1F (centres unmarked) [CBK266511]	103%
O=C(c1ccccc1)c1ccc(OCC(O)CN2CCN(c3ccccn3)CC2)cc1 (centres unmarked) [CBK266513]	98.3%
COc1ccc(N2C(=O)C(CC(=O)Nc3ccc(F)cc3)N(Cc3ccc4c(c3)OCO4)C2=O)cc1 (centres unmarked) [CBK266515]	97%
Cc1nc(-c2ccccc2)sc1C(=O)C1=C(O)C(=O)N(CCN2CCOCC2)C1c1cccs1 (centres unmarked) [CBK266520]	102%
CCC(C)NS(=O)(=O)c1ccc(OCC(=O)O)cc1 (centres unmarked) [CBK266521]	120%
Cn1nnc2cc(C(=O)N(CCO)c3ccccc3)ccc21 [CBK266522]	95.5%
Cc1cc(Cl)c(S(=O)(=O)Nc2cccnc2)cc1OCC(N)=O [CBK266523]	104%
CC(Oc1ccccc1)C(=O)Nc1c[nH]c(=O)[nH]c1=O (centres unmarked) [CBK266524]	72.3%

same assay, conditions: human, hela cells, % viability, bulk resorufin, single well

Structure (SMILES)	viability at 28.5 h, 10 µM
O=C1NC(=O)C(CCc2ccccn2)(Cc2ccc3c(c2)OCO3)C(=O)N1CCc1ccccc1 (centres unmarked) [CBK266392]	98.7%
